Data: ChEMBL document CHEMBL1201862, “PubChem BioAssay data set” (2004)
Activity calls are given as the source filed them.

Legend:
[1] = C. albicans growth with fluconazole, confirmation, fluorescence, retest (AID 2467); type: functional, cell-based
[2] = target: T1, Protein RecA (Mycobacterium tuberculosis, UniProt P9WHJ3); assay: Fluorescence Cell-Free Homogeneous Dose Retest to Identify Inhibitors of RecA-Intein Splicing Activity. [Related pubchem assays (depositor defined):AID2097, AID2223, AID489010, AID492950]; type: functional
T1 sequence (P9WHJ3 whole entry): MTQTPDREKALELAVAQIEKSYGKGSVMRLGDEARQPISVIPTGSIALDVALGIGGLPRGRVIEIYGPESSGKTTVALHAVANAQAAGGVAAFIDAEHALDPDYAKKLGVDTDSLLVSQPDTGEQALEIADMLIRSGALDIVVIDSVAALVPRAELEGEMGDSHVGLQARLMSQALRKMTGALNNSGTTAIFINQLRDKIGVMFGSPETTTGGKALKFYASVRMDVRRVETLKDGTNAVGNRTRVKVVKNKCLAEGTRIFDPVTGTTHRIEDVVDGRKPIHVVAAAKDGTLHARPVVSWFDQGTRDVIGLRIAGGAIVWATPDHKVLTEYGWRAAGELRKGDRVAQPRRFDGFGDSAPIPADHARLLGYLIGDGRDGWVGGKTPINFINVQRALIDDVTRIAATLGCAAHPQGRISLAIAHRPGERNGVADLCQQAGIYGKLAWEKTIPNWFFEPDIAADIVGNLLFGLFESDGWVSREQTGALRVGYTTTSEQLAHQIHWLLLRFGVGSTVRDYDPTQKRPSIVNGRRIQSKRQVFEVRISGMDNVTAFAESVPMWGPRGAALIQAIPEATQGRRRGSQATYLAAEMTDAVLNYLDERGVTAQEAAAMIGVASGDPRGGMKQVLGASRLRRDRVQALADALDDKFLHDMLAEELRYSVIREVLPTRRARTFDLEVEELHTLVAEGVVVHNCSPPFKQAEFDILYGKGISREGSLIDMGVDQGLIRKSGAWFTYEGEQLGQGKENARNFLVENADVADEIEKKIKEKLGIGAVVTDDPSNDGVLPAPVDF

[3] = target: T2, Caspase-6 (Homo sapiens, UniProt P55212); assay: human caspase-6 inhibitors, dose response, biochemical, VEID-R110 fluorescence, cherry-pick (AID 720632)
T2 sequence (P55212 whole entry): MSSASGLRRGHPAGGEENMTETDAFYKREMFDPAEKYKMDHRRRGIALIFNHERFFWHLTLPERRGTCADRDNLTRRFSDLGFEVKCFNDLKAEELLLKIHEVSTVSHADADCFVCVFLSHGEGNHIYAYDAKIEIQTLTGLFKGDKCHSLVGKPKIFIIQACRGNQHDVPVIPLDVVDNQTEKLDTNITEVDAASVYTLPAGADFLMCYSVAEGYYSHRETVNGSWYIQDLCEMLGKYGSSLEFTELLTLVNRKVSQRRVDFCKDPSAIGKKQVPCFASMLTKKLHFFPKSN

[4] = NIH-3T3 fibroblast cytotoxicity, dose response, cytotoxicity control, cell-based, fluorescence, Alamar Blue, secondary assay (AID 2327); type: functional;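 further: NIH-3T3 mouse fibroblasts cultured with fluconazole at 8 µg/mL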
[5] = target: T3, Aminopeptidase N (Plasmodium falciparum FcB1/Columbia, UniProt O96935); assay: P. falciparum M1AAP inhibitors, biochemical, fluorogenic H-Leu-NHMec substrate, 1536-well (AID 1445); parameters: species or system Plasmodium falciparum 3D7, 3D7
T3 sequence (O96935 whole entry): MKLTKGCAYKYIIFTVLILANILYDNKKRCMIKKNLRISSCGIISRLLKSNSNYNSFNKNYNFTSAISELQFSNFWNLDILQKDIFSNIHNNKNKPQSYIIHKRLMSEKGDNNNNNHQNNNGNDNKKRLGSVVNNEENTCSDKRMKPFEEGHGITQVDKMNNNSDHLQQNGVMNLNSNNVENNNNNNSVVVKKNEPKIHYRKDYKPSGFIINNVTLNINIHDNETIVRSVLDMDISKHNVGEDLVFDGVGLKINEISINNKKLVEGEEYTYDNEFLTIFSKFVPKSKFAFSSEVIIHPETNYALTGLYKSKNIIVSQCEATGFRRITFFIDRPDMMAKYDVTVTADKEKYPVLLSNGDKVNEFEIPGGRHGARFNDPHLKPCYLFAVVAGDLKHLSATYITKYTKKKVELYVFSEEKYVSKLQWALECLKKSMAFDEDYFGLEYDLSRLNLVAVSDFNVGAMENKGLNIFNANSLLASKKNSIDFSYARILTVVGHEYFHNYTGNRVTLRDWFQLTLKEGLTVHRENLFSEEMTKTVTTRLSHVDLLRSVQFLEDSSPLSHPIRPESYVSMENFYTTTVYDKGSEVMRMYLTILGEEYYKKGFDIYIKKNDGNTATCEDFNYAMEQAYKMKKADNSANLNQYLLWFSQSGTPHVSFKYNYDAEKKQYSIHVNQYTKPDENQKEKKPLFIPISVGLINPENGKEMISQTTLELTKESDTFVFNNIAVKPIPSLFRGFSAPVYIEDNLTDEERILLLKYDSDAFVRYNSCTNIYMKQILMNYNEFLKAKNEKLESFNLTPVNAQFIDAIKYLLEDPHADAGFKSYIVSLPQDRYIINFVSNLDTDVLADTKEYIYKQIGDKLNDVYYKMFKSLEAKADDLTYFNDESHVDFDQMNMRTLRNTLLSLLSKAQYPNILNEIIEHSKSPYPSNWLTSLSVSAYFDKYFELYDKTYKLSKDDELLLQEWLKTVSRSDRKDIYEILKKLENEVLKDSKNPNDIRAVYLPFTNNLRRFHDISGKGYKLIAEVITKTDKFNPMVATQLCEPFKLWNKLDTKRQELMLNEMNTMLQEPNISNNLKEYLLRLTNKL

[6] = target: T4, Replicative DNA helicase DnaB (Mycobacterium tuberculosis, UniProt P9WMR3); assay: DnaB intein splicing inhibitors, dose response, biochemical, cell-free fluorescence (AID 449749); type: functional
T4 sequence (P9WMR3 whole entry): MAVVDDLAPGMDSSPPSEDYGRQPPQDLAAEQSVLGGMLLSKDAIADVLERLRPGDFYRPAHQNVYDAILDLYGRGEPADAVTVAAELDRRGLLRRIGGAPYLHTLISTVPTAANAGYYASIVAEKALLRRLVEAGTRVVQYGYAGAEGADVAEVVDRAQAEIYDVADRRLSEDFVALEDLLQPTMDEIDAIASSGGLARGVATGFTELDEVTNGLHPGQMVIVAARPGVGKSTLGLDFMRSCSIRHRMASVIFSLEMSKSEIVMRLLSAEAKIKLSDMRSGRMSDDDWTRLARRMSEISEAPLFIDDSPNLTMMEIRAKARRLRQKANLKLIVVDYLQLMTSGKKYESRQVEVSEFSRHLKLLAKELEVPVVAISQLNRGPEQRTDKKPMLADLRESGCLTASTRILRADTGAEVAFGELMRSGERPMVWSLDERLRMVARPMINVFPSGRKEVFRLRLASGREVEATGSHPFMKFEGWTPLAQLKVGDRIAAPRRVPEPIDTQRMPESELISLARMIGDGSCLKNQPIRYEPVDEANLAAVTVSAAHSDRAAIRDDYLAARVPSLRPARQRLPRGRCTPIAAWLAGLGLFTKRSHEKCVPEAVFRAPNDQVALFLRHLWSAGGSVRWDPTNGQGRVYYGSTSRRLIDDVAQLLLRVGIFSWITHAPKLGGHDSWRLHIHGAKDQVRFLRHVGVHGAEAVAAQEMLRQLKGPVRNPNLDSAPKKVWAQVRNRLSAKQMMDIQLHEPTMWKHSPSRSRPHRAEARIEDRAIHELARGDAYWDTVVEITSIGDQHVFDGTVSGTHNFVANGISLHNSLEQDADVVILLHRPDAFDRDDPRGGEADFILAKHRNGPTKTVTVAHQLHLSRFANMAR

[7] = target: E3 ubiquitin-protein ligase Mdm2 (Homo sapiens, UniProt Q00987); assay: enhancers of MDM2-luciferase reporter signal, concentration-effect titration, project on inhibitors of MDM2 ubiquitin ligase, cellular assay, luminescent readout, 384-well plate format (AID 1394); type: functional;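 further: MDM2 E3 inhibitors raise luminescence so EC50 is for signal enhancement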
[8] = Luminescence Cell-Based Dose Response HTS to Identify Activators of Luciferase Translation or Activity in H4 […] Cells. [Related pubchem assays: 1829 (Project Summary), 1814 (Primary HTS)]; type: functional
[9] = Luminescence Cell-Based Dose Response to Identify Activators of 5'UTR Stem-Loop Driven Prion Protein mRNA Translation in H4-C Neuroglioblastoma Cells. [Related pubchem assays: 1829 (Project Summary), 1814 (Primary HTS)]; type: functional
[10] = system: H4; assay: Luminescence Cell-Based Dose Response HTS to Identify Activators of 5'UTR Stem-Loop Driven Prion Protein mRNA Translation in H4 Neuroglioblastoma Cells. [Related pubchem assays: 1829 (Project Summary), 1814 (Primary HTS)]; type: functional; conditions: Homo sapiens
[11] = Luminescence Cell-Based Dose Confirmation to Identify Activators of 5'UTR Stem-Loop Driven Alpha-Synuclein mRNA Translation in H4 Neuroglioblastoma Cells. [Related pubchem assays: 1829 (Project Summary), 1814 (Primary HTS)]; type: functional
[12] = Luminescence Cell-Based Dose Response to Identify Activators of Luciferase Translation or Activity in H4-C Neuroglioblastoma Cells. [Related pubchem assays: 1829 (Project Summary), 1814 (Primary HTS)]; type: functional
[13] = THP-1 cell cytotoxicity, dose response, cytotoxicity control for Vif-APOBEC3G degradation inhibitor project, THP-1 cells (AID 1117359); type: functional; conditions: Human immunodeficiency virus 1, THP-1
[14] = HepG2 cell cytotoxicity, dose response, cytotoxicity control, plate reader, dry powder samples (AID 1159569); type: functional, cell-based;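 further: inhibitor potency with signal falling toward the positive control level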
[15] = P. falciparum 3D7-ScDHODH growth inhibitors, dose response, SYBR Green, dry powder samples (AID 1159570); type: functional, cell-based;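 further: parasite growth measured after 72 hours of compound exposure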
[16] = P. falciparum Dd2 growth inhibitors, dose response, SYBR Green, dry powder samples (AID 1159566); type: functional, cell-based;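 further: potency for growth inhibition with lower SYBR green DNA signal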
[17] = P. falciparum ATP4 D1247Y mutant growth inhibitors, dose response, NITD609-resistant line, SYBR Green, dry powder (AID 1159571); type: functional, cell-based;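 further: parasites synchronized at ring stage by sorbitol before testing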
[18] = P. falciparum Dd2 growth inhibitors, dose response, SYBR Green, cherry-picked samples (AID 1159567); type: functional, cell-based

Chain of E3 ubiquitin-protein ligase Mdm2 (Q00987 whole entry): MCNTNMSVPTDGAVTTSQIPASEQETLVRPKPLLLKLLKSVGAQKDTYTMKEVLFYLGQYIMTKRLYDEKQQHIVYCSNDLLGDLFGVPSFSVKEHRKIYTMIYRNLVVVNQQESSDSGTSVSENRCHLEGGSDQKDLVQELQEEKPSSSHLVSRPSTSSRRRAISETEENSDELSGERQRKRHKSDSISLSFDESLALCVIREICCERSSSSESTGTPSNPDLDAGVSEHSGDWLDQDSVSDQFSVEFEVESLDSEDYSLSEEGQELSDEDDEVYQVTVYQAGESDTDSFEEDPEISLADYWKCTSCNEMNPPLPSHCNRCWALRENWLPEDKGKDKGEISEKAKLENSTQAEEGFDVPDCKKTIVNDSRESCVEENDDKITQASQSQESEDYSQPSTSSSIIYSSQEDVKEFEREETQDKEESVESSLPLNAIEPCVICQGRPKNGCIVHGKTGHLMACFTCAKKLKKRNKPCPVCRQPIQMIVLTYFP

For `Cc1ccc(C(=O)c2coc3cc([N+](=O)[O-])c(O)c([N+](=O)[O-])c23)cc1`, the EC50 [1] was > 38 µM (not active), the EC50 [2] was 9.46 µM (active) and the AC50 [3] was 28.8 µM (active). The EC50 [4] was > 160 µM (inactive), the IC50 [5] was 32.1 µM (active) and the AC50 [6] was 24.4 µM (active).
With `COc1ccc(C)cc1C1=Nc2ccccc2C1(C)C` the EC50 [7] was 15.4 µM (not active).
In the case of `CC(C)(C)c1ccc(C(=O)NC(=S)N2CCOCC2)cc1`, the EC50 [8] is reported as 0.61 µM (active), the EC50 [9] is reported as 0.418 µM (active) and the EC50 [10] is reported as 0.111 µM (active). The EC50 [11] was 2.81 µM (active) and the EC50 [12] was > 12 µM (not active).
In the case of `Cc1ccc(NC(=O)C(=O)c2c(-c3ccccc3)cc3ccccn23)cc1S(=O)(=O)N1CCOCC1`, the CC50 [13] is reported as > 40 µM (active).
In the case of `Cc1nc2cc(NC(=O)CCS(=O)(=O)c3ccccc3)ccc2s1`, the EC50 [8] is reported as < 0.1 µM (inconclusive), the EC50 [9] is reported as 0.312 µM (active) and the EC50 [11] is reported as 0.069 µM (active). For the same molecule, the EC50 [12] was 0.264 µM (active).
With `C[C@H]1CN([C@@H](C)CO)S(=O)(=O)c2ccc(C#Cc3ccncc3)cc2O[C@@H]1CN(C)S(=O)(=O)c1ccccc1` the AC50 [14] was > 100 µM (inactive), the AC50 [15] was 3 µM (active) and the AC50 [16] was 4.05 µM (active). The AC50 [17] was 3.53 µM (active).
In the case of `O=C(N/N=C\c1ccc(Cl)s1)c1cccs1`, the EC50 [7] is reported as 6.96 µM (not active).
With `COc1ccc2c3c(n(C)c2c1)[C@H](CO)N(C(=O)Nc1ccc(F)cc1)CC31CCN(S(=O)(=O)c2cccc(F)c2)CC1` the AC50 [14] was > 100 µM (inactive), the AC50 [18] was 1.19 µM (active) and the AC50 [15] was 1.63 µM (active). For the same molecule, the AC50 [16] was 0.951 µM (active) and the AC50 [17] was 1.56 µM (active).
